Several values for one entry are separate records, joined by “and”; a condition that tells them apart may be missing. Equal entries are not always repeated. Toxic doses and inconclusive results are not listed. Rule for the calls: active = survival T/C of 150% or more; inactive = T/C below 125% in these data.
Test system: P388 leukemia ip, CD2F1 mice, survival T/C
Experiment: NCI In Vivo Anticancer Drug Screen. Data for tumor model P388 Leukemia (intraperitoneal) in CD2F1 (CDF1) mice
Settings: endpoint: median survival time, higher = longer survival
Outline: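 Mice carrying the transplanted tumor received test compound or vehicle. Survival was recorded in each group, and the value is the treated-group measurement divided by that of the vehicle-treated control group.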

[1] = dose: 6.25 mg/kg/injection, schedule: Q01DX005 (ip), vehicle: Klucel (hydroxypropylcellulose) (HPC)
[2] = dose: 12.5 mg/kg/injection, schedule: Q01DX005 (ip), vehicle: Klucel (hydroxypropylcellulose) (HPC)
[3] = dose: 25.0 mg/kg/injection, schedule: Q01DX005 (ip), vehicle: Klucel (hydroxypropylcellulose) (HPC)
[4] = dose: 50.0 mg/kg/injection, schedule: Q01DX009 (ip), vehicle: saline
[5] = dose: 100.0 mg/kg/injection, schedule: Q01DX009 (ip), vehicle: saline
[6] = dose: 200.0 mg/kg/injection, schedule: Q01DX009 (ip), vehicle: saline
[7] = dose: 50.0 mg/kg/injection, schedule: Q01DX009 (ip), vehicle: Klucel (hydroxypropylcellulose) (HPC)
[8] = dose: 200.0 mg/kg/injection, schedule: Q01DX009 (ip), vehicle: Klucel (hydroxypropylcellulose) (HPC)
[9] = dose: 50.0 mg/kg/injection, schedule: Q01DX005 (ip), vehicle: Klucel (hydroxypropylcellulose) (HPC)
[10] = dose: 100.0 mg/kg/injection, schedule: Q01DX005 (ip), vehicle: Klucel (hydroxypropylcellulose) (HPC)
[11] = dose: 50.0 mg/kg/injection, schedule: Q01DX009 (ip), vehicle: saline with Tween-80
[12] = dose: 100.0 mg/kg/injection, schedule: Q04DX003 (ip), vehicle: saline with Tween-80
[13] = dose: 200.0 mg/kg/injection, schedule: Q04DX003 (ip), vehicle: saline with Tween-80
[14] = dose: 100.0 mg/kg/injection, schedule: Q01DX009 (ip), vehicle: saline with Tween-80
[15] = dose: 200.0 mg/kg/injection, schedule: Q01DX009 (ip), vehicle: saline with Tween-80

Measured: T/C

O=C1N2CCNc3ccccc3C(c3ccccc3)N1CC2 (stereo not given)
inactive: [1] 88 % of control | [2] 93 % of control | [3] 102 % of control

COCCCn1c(-c2ccc(Cl)cc2)nn2c(=O)c3ccccc3nc2c1=O
inactive: [4] 97 % of control | [5] 92 % of control | [6] 92 % of control

Cc1ccc(C)c(NC(=O)Nc2nccs2)c1
inactive: dose: 25.0 mg/kg/injection, schedule: Q01DX009 (ip), vehicle: Klucel (hydroxypropylcellulose) (HPC) 99 % of control | [7] 90 % of control | [8] 91 % of control

Cc1ccc2c(c1)-c1nc3nnnn3nc1C(C)(C)O2
inactive: dose: 60.0 mg/kg/injection, schedule: Q01DX005 (ip), vehicle: saline with Tween-80 92 % of control | dose: 120.0 mg/kg/injection, schedule: Q01DX005 (ip), vehicle: saline with Tween-80 95 % of control | dose: 240.0 mg/kg/injection, schedule: Q01DX005 (ip), vehicle: saline with Tween-80 98 % of control

CC(C)N1C(=O)c2ccccc2S1(Cl)c1ccccc1 (stereo not given)
inactive: dose: 100.0 mg/kg/injection, schedule: Q04DX003 (ip), vehicle: Klucel (hydroxypropylcellulose) (HPC) 101 % of control | dose: 200.0 mg/kg/injection, schedule: Q04DX003 (ip), vehicle: Klucel (hydroxypropylcellulose) (HPC) 98 % of control | dose: 400.0 mg/kg/injection, schedule: Q04DX003 (ip), vehicle: Klucel (hydroxypropylcellulose) (HPC) 98 % of control

C[CH2][Ge]([CH2]C)[CH2]C.C[CH2][Ge]([Cl])[CH2]C.C[CH2][Ge][CH2]C
inactive: [4] 104 % of control | [5] 103 % of control | [6] 103 % of control

OCCN1CCN(CCCN2c3cscc3Sc3ccc(Cl)cc32)CC1
inactive: [9] 94 % of control and 95 % of control | [10] 101 % of control

Cc1cccc2c(SCCCCCCSc3c4ccccc4nc4c(C)cccc34)c3ccccc3nc12
inactive: dose: 60.0 mg/kg/injection, schedule: Q01DX005 (ip), vehicle: Klucel (hydroxypropylcellulose) (HPC) 90 % of control | dose: 120.0 mg/kg/injection, schedule: Q01DX005 (ip), vehicle: Klucel (hydroxypropylcellulose) (HPC) 92 % of control | dose: 240.0 mg/kg/injection, schedule: Q01DX005 (ip), vehicle: Klucel (hydroxypropylcellulose) (HPC) 91 % of control

CN1CC2Cc3ccc(O)cc3C(C)(C2)C1 (stereo not given)
inactive: dose: 12.5 mg/kg/injection, schedule: Q01DX009 (ip), vehicle: saline 98 % of control | dose: 25.0 mg/kg/injection, schedule: Q01DX009 (ip), vehicle: saline 96 % of control | [11] 87 % of control | [4] 98 % of control

Cc1ccc(S(=O)(=O)OC2C(COCC(=O)O)OC3OC(C)(C)OC32)cc1 (stereo not given)
inactive: [12] 95 % of control | [13] 95 % of control | dose: 400.0 mg/kg/injection, schedule: Q04DX003 (ip), vehicle: saline with Tween-80 90 % of control

CN1CCC23c4c5ccc(O)c4OC2C(O)C=CC3C1C5 (stereo not given)
inactive: dose: 32.0 mg/kg/injection, schedule: Q01DX009 (ip), vehicle: saline 97 % of control | dose: 64.0 mg/kg/injection, schedule: Q01DX009 (ip), vehicle: saline 106 % of control | dose: 128.0 mg/kg/injection, schedule: Q01DX009 (ip), vehicle: saline 95 % of control

CCOC(=O)C(=CNc1ccccc1)C(=O)OCC
inactive: dose: 25.0 mg/kg/injection, schedule: Q01DX009 (ip), vehicle: saline with Tween-80 103 % of control | [11] 100 % of control | [14] 103 % of control | [15] 100 % of control

CCOC(=O)c1ccc(NC(=O)Nc2nc3c(Cl)cccc3s2)cc1
inactive: [11] 104 % of control | [14] 94 % of control | [15] 87 % of control

Clc1cccc(NN=Nc2ccccc2)c1
inactive: [7] 104 % of control | dose: 100.0 mg/kg/injection, schedule: Q01DX009 (ip), vehicle: Klucel (hydroxypropylcellulose) (HPC) 96 % of control | [8] 103 % of control

Cc1cnc(=O)[nH]c1NO
inactive: dose: 100.0 mg/kg/injection, schedule: Q04DX002 (ip), vehicle: Klucel (hydroxypropylcellulose) (HPC) 102 % of control | dose: 200.0 mg/kg/injection, schedule: Q04DX002 (ip), vehicle: Klucel (hydroxypropylcellulose) (HPC) 100 % of control | dose: 400.0 mg/kg/injection, schedule: Q04DX002 (ip), vehicle: Klucel (hydroxypropylcellulose) (HPC) 98 % of control

CN(C)c1c([N+](=O)[O-])cc2[nH]cnc2c1[N+](=O)[O-]
inactive: dose: 3.12 mg/kg/injection, schedule: Q04DX003 (ip), vehicle: saline with Tween-80 103 % of control | dose: 6.25 mg/kg/injection, schedule: Q04DX003 (ip), vehicle: saline with Tween-80 103 % of control | dose: 12.5 mg/kg/injection, schedule: Q04DX003 (ip), vehicle: saline with Tween-80 105 % of control

Cn1c2nc(=O)[nH]c(=O)c-2cc2ccccc21
inactive: dose: 25.0 mg/kg/injection, schedule: Q04DX003 (ip), vehicle: saline with Tween-80 95 % of control | dose: 50.0 mg/kg/injection, schedule: Q04DX003 (ip), vehicle: saline with Tween-80 93 % of control | [12] 90 % of control | [13] 94 % of control

CCOC(=O)N1N=C(c2ccccc2)OC2(N3CCOCC3)CCC(C(C)(C)C)CC12 (stereo not given)
inactive: [9] 100 % of control | [10] 101 % of control | dose: 200.0 mg/kg/injection, schedule: Q01DX005 (ip), vehicle: Klucel (hydroxypropylcellulose) (HPC) 97 % of control

CCC1N=C(N)N=C(N)N1c1ccc(Cl)c(Cl)c1 (stereo not given)
inactive: dose: 3.12 mg/kg/injection, schedule: Q01DX005 (ip), vehicle: Klucel (hydroxypropylcellulose) (HPC) 104 % of control and 96 % of control | [1] 102 % of control and 105 % of control and 107 % of control | [2] 113 % of control and 114 % of control and 97 % of control | [3] 111 % of control and 114 % of control

CCC(C)C[c-]1[c-][c-][c-][c-]1.CCC(C)C[c-]1[c-][c-][c-][c-]1.[Cl][Zr][Cl] (stereo not given)
inactive: [11] 90 % of control | [14] 88 % of control

CCOCC(=O)O
inactive: [4] 95 % of control | [5] 92 % of control | [6] 91 % of control

Source: PubChem BioAssay AID330 (DTP/NCI, 2004)
